Read-outs that look alike come from different tables or passages of the source.
Tests used:
human CA-II (CA2) [1] = biological target: T1, human CA-II (CA2) (Homo sapiens (Human), UniProt P00918); assay: biochemical
Protocol: (§1) Cytiva Biacore S200, T200 and 3000 machines were used for all SPR experiments. […] For carbonic anhydrases, data were collected at a constant temperature of 25° C. Human CA-I (CA1) or human CA-II (CA2) was captured via standard EDC/NHS protocol on a Biacore CM5 chip using standard protocols in HBS-N buffer (10 mM HEPES (pH 7.4), 150 mM NaCl) at ˜2000 RU. The experiments were run in PBS buffer containing 0.05% Tween 20 and 3% DMSO. All compounds were initially screened at concentrations ranging from 23 nM to 50 µM or 4.6 nM to 10 µM, injecting from the lowest to highest concentrations and adjusting appropriately for each compound for repeat experiments. Scrubber 2 (Biologic software) was used to process and analyse SPR data. […] Data for the inhibitors were referenced to those for a blank surface and blank injections to normalise for non-specific binding and drift. A DMSO calibration was run to remove excluded volume effect of binding responses between reference and target surface.

human CA-I (CA1) [2] = biological target: T2, human CA-I (CA1) (Homo sapiens (Human), UniProt P00915); assay: biochemical
Protocol: as §1

Human ENPP1 [3] = biological target: T3, Human ENPP1 (Homo sapiens (Human), UniProt P22413); assay: biochemical
Protocol: (§2) ENPP1 catalyses the hydrolysis of ATP into AMP+PPi. AMP production was monitored using Bellbrooks Transcreener AMP/GMP TR-FRET assay kit (Cat No. 3020-10K) according to the manufacturer's instructions. The assay was run with 50 mM Tris pH 7.5, 5 mM MgCl2, 150 mM NaCl, 0.005% Tween20 and distilled H2O. Antibody and tracer were diluted to 2 nM. […] Mouse ENPP1 was run at 15 pM with ATP at 400 nM. AMP produced in the assay by ENPP1 activity competes with a far-red tracer labelled AMP bound to an AMP specific antibody resulting in a decrease in TR-FRET. ENPP1 inhibition reduces AMP production and increases the TR-FRET signal.

[4] = biological target: ENPP1 expressed by MCF-7 cells (Homo sapiens (Human), UniProt P22413); assay: cell-based
Protocol: ENPP1 inhibition was assessed in a human cellular co-culture assay using THP1-Dual interferon reporter cells from InvivoGen (Cat No. thpd-nfis), see Goswami et al., 2022, and MCF-7 cancer cells.
MCF-7 cells were seeded at 10,000 cells/well in a 96 well plate and 24 h later compounds were added in DMEM+GlutaMAX media+2% Hyclone FBS, with a final DMSO of 0.2%. 2′3′-cGAMP was added at a final concentration of 10 μM and incubated for 30 mins at 37° C. 20,000 THP-1 cells were added per well and incubated for 48 h. IFN response was measured by Quanti-Luc Gold according to the manufacturer's instructions using 15 μL Quanti-Luc Gold per well. Luminescence was measured on an EnSight reader (PerkinElmer).

Human ENPP1 [5] = biological target: T3, Human ENPP1
Protocol: as §2

Alpl^Prx1 mouse = assay: In vivo Model 1: Alpl^Prx1 mouse model of hypophosphatasia (HPP)
Protocol: Bone tissues were fixed in 4% PFA.
PPi levels were measured using a standard method involving ATPsulfurylase. […] ATP converted from PPi in the samples was mixed with BacTiter-Glo (Promega) and luminescence was quantified in duplicated reactions using a iD3X plate reader (Molecular Device). Values obtained from reactions without ATPsulfurylase were subtracted to eliminate ATP which possibly existed in the plasma samples.
Plasma chemistry was performed using Vetscan VS2 analyzer with Comprehensive Diagnostic Profiles rotor (Abaxis). […] Mouse OPN was measured with Quantikine®-ELISA kit (R&D).
Radiographic images were obtained by using XPERT 80-Kubtec Scientific.
Three stained sections per mouse were analyzed by Keyence microscope to obtain an average value of mineralized area. Five mice per genotype were used (n=5).

human CA-I (CA1) [6] = biological target: T2, human CA-I (CA1); assay: Surface plasmon resonance, carbonic anhydrase I; details: 25° C., CM5 chip
Protocol: as §1

human CA-II (CA2) [7] = biological target: T1, human CA-II (CA2); assay: Surface plasmon resonance, carbonic anhydrase II; details: 25° C., CM5 chip
Protocol: as §1

[8] = oral in diet, after 100 days of dosing

Sequence of ENPP1 expressed by MCF-7 cells (P22413 whole entry): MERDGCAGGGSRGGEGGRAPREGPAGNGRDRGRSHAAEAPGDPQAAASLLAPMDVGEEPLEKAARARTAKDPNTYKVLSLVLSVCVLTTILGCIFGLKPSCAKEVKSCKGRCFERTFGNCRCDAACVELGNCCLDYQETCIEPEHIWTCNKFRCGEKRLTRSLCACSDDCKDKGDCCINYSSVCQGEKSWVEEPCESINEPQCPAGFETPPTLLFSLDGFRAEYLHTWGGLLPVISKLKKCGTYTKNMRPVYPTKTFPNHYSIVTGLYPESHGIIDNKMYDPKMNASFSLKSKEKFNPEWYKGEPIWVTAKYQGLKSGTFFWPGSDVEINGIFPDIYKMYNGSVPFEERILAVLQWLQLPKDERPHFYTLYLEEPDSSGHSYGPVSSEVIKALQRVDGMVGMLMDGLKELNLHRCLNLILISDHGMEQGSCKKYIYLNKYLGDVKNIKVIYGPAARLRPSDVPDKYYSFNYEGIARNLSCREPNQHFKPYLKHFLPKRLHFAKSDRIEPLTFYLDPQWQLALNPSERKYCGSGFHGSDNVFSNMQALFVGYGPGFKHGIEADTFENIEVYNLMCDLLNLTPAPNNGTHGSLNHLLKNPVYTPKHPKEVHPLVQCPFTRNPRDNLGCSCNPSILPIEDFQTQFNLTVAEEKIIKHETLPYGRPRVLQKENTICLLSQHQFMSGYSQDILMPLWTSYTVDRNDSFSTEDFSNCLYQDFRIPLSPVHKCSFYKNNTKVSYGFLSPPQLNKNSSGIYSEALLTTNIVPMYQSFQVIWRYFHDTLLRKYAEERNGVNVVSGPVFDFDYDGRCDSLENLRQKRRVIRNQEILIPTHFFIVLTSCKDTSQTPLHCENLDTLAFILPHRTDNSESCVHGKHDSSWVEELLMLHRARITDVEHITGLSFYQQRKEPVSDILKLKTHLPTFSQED
T3 sequence (P22413 whole entry): as above
T2 sequence (P00915 whole entry): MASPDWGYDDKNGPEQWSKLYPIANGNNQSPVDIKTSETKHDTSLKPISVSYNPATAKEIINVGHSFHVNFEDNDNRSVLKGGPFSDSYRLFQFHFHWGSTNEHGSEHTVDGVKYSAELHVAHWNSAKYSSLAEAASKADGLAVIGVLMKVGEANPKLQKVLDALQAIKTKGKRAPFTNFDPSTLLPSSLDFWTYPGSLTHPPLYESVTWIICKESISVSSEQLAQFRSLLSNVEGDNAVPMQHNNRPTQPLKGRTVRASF

Row | SMILES | Kd (human CA-II (CA2) [1]) [µM] | Kd (human CA-I (CA1) [2]) [µM] | EC50 [4] [µM] | EC50 (Human ENPP1 [5]) [µM] | other results
1 | CC(C)c1cn(Cc2ccc(S(C)(=N)=O)cc2)c2cc(C3CC3)nn2c1=O (racemic) [3 Rac] | > 100000 |  |  |  | 
2 | Cc1cc2n(Cc3ccc(S(C)(=N)=O)cc3)cc(C(C)C)c(=O)n2n1 (racemic) [9 Rac] | > 100000 | > 100000 |  |  | 
3 | CCc1nc2n(Cc3ccc(S(C)(=N)=O)cc3)cc(C(C)C)c(=O)n2n1 (racemic) [31 Rac] | > 100000 | > 100000 |  |  | 
4 | CC(C)c1cn(Cc2ccc(S(C)(=N)=O)cc2)c2nc(CC(F)(F)F)nn2c1=O (racemic) [32 Rac] | > 100000 | > 100000 |  |  | EC50 (Human ENPP1 [3]): 0.00794 µM
5 | CCS(=N)(=O)c1ccc(Cn2cc(C(C)C)c(=O)n3nc(C4CC4)nc23)cc1 (racemic) [56 Rac] | 31.6 |  |  |  | EC50 (Human ENPP1 [3]): 0.00251 µM
6 | Cc1cc(Cn2cc(C(C)C)c(=O)n3nc(C4CC4)cc23)ccc1S(C)(=N)=O (racemic) [58 Rac] |  | > 100000 |  |  | EC50 (Human ENPP1 [3]): 0.002 µM
7 | CC(C)c1cn(C[C@H]2C[C@H]3C[C@@H]2CN3S(N)(=O)=O)c2nc(C(F)(F)F)nn2c1=O (racemic) [Compound 36, rac-(1R,4R,5R)-5-((6-isopropyl-7-oxo-2-(trifluoromethyl)-[1,2,4]triazolo[1,5-a]pyrimidin-4(7H)-yl)methyl)-2-azabicyclo[2.2.1]heptane-2-sulfonamide] |  | > 100000 |  |  | 
8 | CC(C)c1cn(Cc2ccc([S@](C)(=N)=O)cc2)c2cc(C3CC3)nn2c1=O (single isomer, unassigned) [Compound 3A] | > 100000 |  |  |  | 
9 | CC(C)c1cn(Cc2ccc([S@@](C)(=N)=O)cc2)c2cc(C3CC3)nn2c1=O (single isomer, unassigned) [Compound 3B] | > 100000 |  |  |  | 
10 | Cc1cc2n(Cc3ccc(S(C)(=N)=O)cc3)cc(C(C)C)c(=O)n2n1 (single isomer, unassigned) [Compound 9A] | > 100000 | > 100000 |  |  | 
11 | CCc1nc2n(Cc3ccc([S@@](C)(=N)=O)cc3)cc(C(C)C)c(=O)n2n1 (single isomer, unassigned) [Compound 31A] | > 100000 | > 100000 |  |  | 
12 | CCc1nc2n(Cc3ccc([S@](C)(=N)=O)cc3)cc(C(C)C)c(=O)n2n1 (single isomer, unassigned) [Compound 31B] | > 100000 | > 100000 |  |  | 
13 | CC(C)c1cn(Cc2ccc(S(C)(=N)=O)cc2)c2nc(CC(F)(F)F)nn2c1=O (single isomer, unassigned) [Compound 32A] | > 100000 | > 100000 | 0.0794 |  | EC50 (Human ENPP1 [3]): 0.00631 µM
14 | CC(C)c1cn(Cc2ccc([S@@](C)(=N)=O)cc2)c2nc(CC(F)(F)F)nn2c1=O (single isomer, unassigned) [Compound 32B] | > 100000 | > 100000 |  |  | 
15 | CC(C)c1cn(Cc2ccc([S@@](=N)(=O)C3CC3)cc2)c2nc(C3CC3)nn2c1=O (single isomer, unassigned) [Compound 55] |  |  | 0.0251 | 0.000316 | 
16 | CC[S@](=N)(=O)c1ccc(Cn2cc(C(C)C)c(=O)n3nc(C4CC4)nc23)cc1 (single isomer, unassigned) [Compound 56A] |  |  | 0.0398 | 0.001 | 
17 | Cc1cc(Cn2cc(C(C)C)c(=O)n3nc(C4CC4)cc23)ccc1[S@@](C)(=N)=O (single isomer, unassigned) [Compound 58A] |  |  | 0.2 | 0.00126 | 
18 | Cc1cc(Cn2cc(C(C)C)c(=O)n3nc(C4CC4)nc23)ccc1[S@](C)(=N)=O (single isomer, unassigned) [Compound 65] |  |  | 0.0398 | 0.00158 | 
19 | CC(C)c1cn(Cc2ccc([S@](C)(=N)=O)c(F)c2)c2cc(C3CC3)nn2c1=O (single isomer, unassigned) [Compound 72] |  |  | 0.2 | 0.00251 | 
20 | CC(C)c1cn(Cc2ccc(S(N)(=O)=O)cc2)c2nc(C3CC3)nn2c1=O [Compound 11, 4-((2-cyclopropyl-6-isopropyl-7-oxo-[1,2,4]triazolo[1,5-a]pyrimidin-4(7H)-yl)methyl)benzenesulfonamide] |  |  |  |  | Bone mineralization of the bone cortex (X-ray, tibia / knee joints) (Alpl^Prx1 mouse; male and female mice, oral in diet, 100 days): increased bone mineralization; Plasma chemistry (significant changes; transaminase, amylase, BUN, Ca) (Alpl^Prx1 mouse; male mice, WT, control and treated): only observed between WT and HPP mice; Mineralization of L3 vertebrate bone (bone morphometry, Von Kossa) (Alpl^Prx1 mouse; oral in diet, 100 days): increased to the levels of wild-type mice; Mineralization of trabecular bones of the distal femur (bone morphometry, Von Kossa) (Alpl^Prx1 mouse; oral in diet, 100 days): slight improvement in mineralization; Plasma AP levels (Alpl^Prx1 mouse; [8]): did not affect; Plasma OPN levels (Alpl^Prx1 mouse; [8]): did not affect; Plasma PPi levels (Alpl^Prx1 mouse; [8]): reduced to the levels of WT mice
21 | CC(C)c1cn(Cc2ccc(S(N)(=O)=O)c(-c3ccccc3)n2)c2nc(C3CC3)nn2c1=O [Compound 27, 6-((2-cyclopropyl-6-isopropyl-7-oxo-[1,2,4]triazolo[1,5-a]pyrimidin-4(7H)-yl)methyl)-2-phenylpyridine-3-sulfonamide] |  |  | 0.251 | 0.00631 | CA1 human SPR pKD (human CA-I (CA1) [6]): 3.0; CA2 human SPR pKD (human CA-II (CA2) [7]): 3.0
22 | CNc1nc(S(N)(=O)=O)ccc1Cn1cc(C(C)C)c(=O)n2nc(C3CC3)nc12 [Compound 29, 5-((2-cyclopropyl-6-isopropyl-7-oxo-[1,2,4]triazolo[1,5-a]pyrimidin-4(7H)-yl)methyl)-6-(methylamino)pyridine-2-sulfonamide] | 31.6 |  |  |  | 
23 | CC(C)c1nc2n(Cc3ccc(S(C)(=N)=O)cc3)cc(C(C)C)c(=O)n2n1 (stereo not shown) [Compound 30, 2,6-diisopropyl-4-(4-(S-methylsulfonimidoyl)benzyl)-[1,2,4]triazolo[1,5-a]pyrimidin-7(4H)-one] |  |  | 0.0794 | 0.00398 | CA1 human SPR pKD (human CA-I (CA1) [6]): <1; CA2 human SPR pKD (human CA-II (CA2) [7]): <1
24 | CC(C)c1cn(C[C@@H]2C[C@@H]3C[C@H]2CN3S(N)(=O)=O)c2ncnn2c1=O [Compound 37, (1R,4R,5R)-5-((6-isopropyl-7-oxo-[1,2,4]triazolo[1,5-a]pyrimidin-4(7H)-yl)methyl)-2-azabicyclo[2.2.1]heptane-2-sulfonamide] |  | > 100000 |  |  | 
25 | CC(C)c1nn2c(=O)c(C(C)C)cn(C[C@H]3C[C@H]4C[C@@H]3CN4S(N)(=O)=O)c2c1F [Compound 43, (1S,4S,5S)-5-((3-Fluoro-2,6-diisopropyl-7-oxopyrazolo[1,5-a]pyrimidin-4(7H)-yl)methyl)-2-azabicyclo[2.2.1]heptane-2-sulfonamide] |  |  |  | 0.00398 | CA1 human SPR pKD (human CA-I (CA1) [6]): 3.0; CA2 human SPR pKD (human CA-II (CA2) [7]): 4.8
26 | COc1c(C2CC2)nn2c(=O)c(C(C)C)cn(C[C@H]3C[C@H]4C[C@@H]3CN4S(N)(=O)=O)c12 [Compound 44, (1S,4S,5S)-5-((2-Cyclopropyl-6-isopropyl-3-methoxy-7-oxopyrazolo[1,5-a]pyrimidin-4(7H)-yl)methyl)-2-azabicyclo[2.2.1]heptane-2-sulfonamide] |  |  |  | 0.00501 | CA1 human SPR pKD (human CA-I (CA1) [6]): 3.0; CA2 human SPR pKD (human CA-II (CA2) [7]): 4.2
27 | CC(C)c1cn(Cc2ccc(S(=N)(=O)C3CC3)cc2)c2nc(C3CC3)nn2c1=O (stereo not shown) [Compound 54, 4-(4-(Cyclopropanesulfonimidoyl)benzyl)-2-cyclopropyl-6-isopropyl-[1,2,4]triazolo[1,5-a]pyrimidin-7(4H)-one] |  |  | 0.0398 | 0.00126 | 
28 | Cc1cc(S(C)(=N)=O)ccc1Cn1cc(C(C)C)c(=O)n2nc(C3CC3)cc12 (stereo not shown) [Compound 61, 2-Cyclopropyl-6-isopropyl-4-(2-methyl-4-(S-methylsulfonimidoyl)benzyl)pyrazolo[1,5-a]pyrimidin-7(4H)-one] |  |  |  | 0.00398 | CA1 human SPR pKD (human CA-I (CA1) [6]): 3.0; CA2 human SPR pKD (human CA-II (CA2) [7]): 3.8
29 | Cc1cc(Cn2cc(C(C)C)c(=O)n3nc(C4CC4)nc23)ccc1S(C)(=N)=O (stereo not shown) [Compound 71, 2-Cyclopropyl-6-isopropyl-4-(3-methyl-4-(S-methylsulfonimidoyl)benzyl)-[1,2,4]triazolo[1,5-a]pyrimidin-7(4H)-one] |  |  | 0.251 | 0.00316 | 

Source: patent US20260001886A1, “ENPP1 INHIBITORS I” (RE Ventures I, LLC, priority 2024, published 2026)
